Assay results: article PMC10535741, “Styrylpyridinium Derivatives for Fluorescent Cell Imaging” (Pharmaceuticals, 2023)
Where two headings read alike, the source gives them in different places.

Key:
Format in all cases: cell-based
[1] = system: HT-1080 (human connective tissue fibrosarcoma); assay: MTT cytotoxicity assay, HT-1080; conditions: for IC50: Homo sapiens, read-out: IC50 (µg/mL) HT-1080
Method: (§1) The evaluation of the in vitro cytotoxicity (IC50, half maximal inhibitory concentration) of the abovementioned compounds and their structural derivatives was assessed using the standard colorimetric 3-(4,5-dimethylthiazol-2-yl)-2,5-diphenyltetrazolium bromide (MTT) assay on two monolayer tumour cell lines, namely HT-1080 (human connective tissue fibrosarcoma) and MH-22A (mouse hepatocarcinoma). Additionally, the impact of the compound on non-cancerous “normal” cells—mouse fibroblasts (NIH3T3)—was estimated in order to measure the basal toxicity (LD50, median lethal dose). The obtained results were used for investigation of the structure–activity relationships and exploration of the effect of substituents on cellular response and toxicity. The estimated LD50 gives information regarding the compound properties and could potentially be used to select promising compounds by providing a starting dose for in vivo experiments.
(§2) The HT-1080 (human connective tissue fibrosarcoma, ATCC® CCL-121™), MH-22A (mouse hepatocarcinoma, ECACC Cat. No. 96121721), A-549 (human lung carcinoma, ATCC® CCL-185™), NIH3T3 (Swiss Albino mouse embryo fibroblast, ECACC Cat. No. 93061524), Hek293 (human embryonic kidney, ATCC® CRL-1573™), BHK-21 (Syrian hamster kidney, ATCC® CCL-10™), A-431 (human epidermoid carcinoma, ATCC® CRL-1555™), Saos-2 (human osteosarcoma, ATCC® HTB-85™), HeLa (human epitheloid cervix carcinoma, ATCC® CCL-2™), U937 (human myeloid leukaemia, ATCC® CRL-1593.2™), C6 (rat glioma, ATCC® CCL-107™), and B16-F10 (murine melanoma, ATCC® CRL-6475™) cell lines were obtained from the American Type Culture Collection (ATCC) and European Collection of Authenticated Cell Cultures (ECACC).
(§3) HT-1080, MH-22A, A-549, NIH3T3, BHK-21, A-431, HeLa, and B16-F10 cells were cultured in Dulbecco’s Modified Eagle’s Medium (DMEM) with 2 mM glutamine and 10% foetal bovine serum (FBS). Hek293 cells were cultured in Eagle’s Minimum Essential Medium with 10% foetal bovine serum. U937 cells were cultured in RPMI-1640 Medium with 2 mM glutamine and 10% foetal bovine serum. C6 cells were cultured in Ham’s F12 Medium with 2 mM glutamine and 10% foetal bovine serum. Saos-2 cells were cultured in McCoy’s 5a Medium with 2 mM glutamine and 10% foetal bovine serum. The cells were incubated at 37 °C with 5% CO2, 95% air, and complete humidity. Once ~90% confluence was reached, they were detached using 0.05% trypsin/EDTA and counted. The cells were plated at optimally determined densities for the logarithmic phase of growth. These cells were then suspended at a concentration of 4000 cells/well for HT-1080, MH-22A, A-549, NIH3T3, BHK-21, A-431, HeLa, B16-F10, Hek293, and Saos-2 cells and a concentration of 9000 cells/well for U937, C6, Hek293, and GM08402 cells and added onto a 96-well plate. For background absorption, some wells remained cell free, i.e., as a blank control. Cells were incubated for 72 h at 37 °C and 5% CO2 where they were exposed to a media containing serial dilutions of the investigated compounds (n = 3). Cell viability was measured using the 3-(4,5-dimethylthiazol-2-yl)-2,5-diphenyl-tetrazolium bromide (MTT) assay. In brief, after incubating with compounds, the culture medium was removed and fresh medium with 0.2 mg/mL MTT was added to each well of the plate. After incubation (3 h, 37 °C, 5% CO2), the medium with MTT solution was removed and replaced with 200 µL DMSO and 25 µL Sorenson’s glycine buffer (glycine 0.1 M, NaCl 0.1 M, pH: 10.5 with 0.1 M NaOH). The plate was shaken for 15 min at room temperature and the optical density (OD) of the wells was determined using a multichannel spectrophotometer (Thermo Scientific Multiskan EX) at 540 nm. The quantity of the control cells was taken in calculations as 100%. The IC50 value was calculated using the program Graph Pad Prism® 3.0.

[2] = system: MH-22A (mouse hepatocarcinoma); assay: MTT cytotoxicity assay, MH-22A; conditions: for IC50: Mus musculus, read-out: IC50 (µg/mL) MH-22A
Method: as §1, §2, §3

[3] = Basal cytotoxicity, neutral red uptake (NRU) assay, with LD50 estimated from IC50; conditions: mouse
Method: as §1
To assess basal cytotoxicity, the neutral red uptake (NRU) assay was conducted following a modified version of the standard protocol of Stokes’ [71], as validated by the NICEATM-ECVAM study. The NRU cytotoxicity assay determines the ability of viable cells to incorporate and bind a supravital dye, neutral red (NR).
NIH3T3 cells (9000 cells/well) were cultured in 96-well plates in DMEM medium supplemented with 5% FBS for 24 h. Subsequently, the cells were exposed to the test compounds over a range of seven concentrations (1000 µg/mL, 316 µg/mL, 100 µg/mL, 31 µg/mL, 10 µg/mL, 3.0 µg/mL, and 1.0 µg/mL) for 24 h. Untreated cells were used as a control. After the incubation period, the medium was removed from all plates and a solution of NR was added (250 µL, 0.05 mg/mL NR in DMEM 24 h pre-incubated at 37 °C and then filtered before use through a 0.22 µm syringe filter). The plates were incubated for 3 h, followed by three washes with phosphate-buffered saline (PBS). The cells were then treated with a mixture of ethanol (50%) and water (49%) supplemented with 1% acetic acid. The absorbance of NR was measured using a spectrophotometer multiplate reader (Infinite M1000; Tecan Austria GmbH, Salzburg, Austria) at 540 nm. The optical density (OD) was then calculated using the following formula: ODtreated cells×100/ODcontrol cells.
The IC50 values were calculated using the program Graph Pad Prism® 3.0.
In vitro test results were employed to estimate the starting dose for acute oral systemic toxicity tests in rodents (LD50). The LD50 value was calculated using the in vitro IC50 value and a following formula: logLD50(mM/kg)=0.439×logIC50(mM)+0.621
The value was then converted to mg/kg and the compounds classified into four toxicity categories. Category 1 (highly toxic): LD50 ≤ 5 mg/kg; Category 2 (moderately toxic): 5 < LD50 ≤ 50 mg/kg; Category 3 (slightly toxic): 50 < LD50 ≤ 300 mg/kg; Category 4 (practically non-toxic): 300 < LD50 ≤ 2000 mg/kg.

[4] = estimated from in vitro NRU IC50 (24 h) by log LD50 = 0.439 x log IC50 + 0.621, read-out: Basal Cytotoxicity (NIH3T3) LD50
[5] = estimated from in vitro NRU IC50 (24 h), read-out: Basal cytotoxicity (NIH3T3) LD50 mM/kg

| Structure (SMILES) | IC50 ([1]; HT-1080, 72 h treatment, MTT) | IC50 ([2]; 72 h treatment, MTT) | LD50 at 24 h [3, 4] | LD50 at 24 h [3, 5] | also measured |
| --- | --- | --- | --- | --- | --- |
| CCCCCCCCCCCCCCCC[n+]1ccc(C=CC=Cc2ccc(OC)cc2)cc1.[Br-] [Compound 6c, 1-hexadecyl-4-(4-(4-methoxyphenyl)buta-1,3-dien-1-yl)pyridin-1-ium bromide] | 0.2 ± 0.04 µg/mL | 0.13 ± 0.03 µg/mL | 85 ± 7 mg/kg | 160 µmol/kg | – |
| CCCCCCCCCCCC[n+]1ccc(C=Cc2cc3c4c(c2)CCCN4CCC3)cc1.[Br-] [Compound 6d, 1-dodecyl-4-(2-(2,3,6,7-tetrahydro-1H,5H-pyrido[3,2,1-ij]quinolin-9-yl)vinyl)pyridin-1-ium bromide] | 1.4 ± 0.3 µg/mL | 0.05 ± 0.003 µg/mL | 169 ± 18 mg/kg | 300 µmol/kg | times higher cytotoxicity towards MH-22A than compound 7a ([2]; 6d versus 7a): 80 times |
| C(=C\c1cc2c3c(c1)CCCN3CCC2)/c1cc[n+](CCC[n+]2ccc(/C=C/c3cc4c5c(c3)CCCN5CCC4)cc2)cc1 [Compound 7a] | – | – | 1100 ± 20 mg/kg | – | IC50 ([1]; HT-1080, 72 h): 2 ± 0.3 µg/mL; IC50 ([2]; 72 h): 4 ± 0.3 µg/mL |
| C(C=Cc1cc2c3c(c1)CCCN3CCC2)=Cc1cc[n+](CCC[n+]2ccc(C=CC=Cc3cc4c5c(c3)CCCN5CCC4)cc2)cc1.[Br-].[Br-] [Compound 7b, 1,1′-(propane-1,3-diyl)bis(4-(4-(2,3,6,7-tetrahydro-1H,5H-pyrido[3,2,1-ij]quinolin-9-yl)buta-1,3-dien-1-yl)pyridin-1-ium) dibromide] | 6 ± 0.2 µg/mL | 5 ± 0.6 µg/mL | 857 ± 13 mg/kg | – | – |
| CCCCCCCCCCCC[n+]1ccc(C=Cc2cc(OC)c(OC)c(OC)c2)cc1.[Br-] [Compound 6a, 4-(3,4,5-trimethoxystyryl)-N-dodecylpyridinium bromide] | 0.22 ± 0.06 µg/mL | 0.45 ± 0.08 µg/mL | – | 500 µmol/kg | times more toxic than 6b in MH-22A ([2]; 6a versus 6b): 2.4 times; times lower cytotoxicity of 6a compared with 6d, MH-22A ([2]; ratio of IC50 values): 8.5 times; LD50 at 24 h ([3]; NIH3T3 cells, estimated from in vitro NRU IC50 (24 h) by log LD50 = 0.439 x log IC50 + 0.621, read-out: Basal Cytotoxicity (NIH3T3) LD50): 249 ± 3 mg/kg |
| CCCCCCCCCCCCCCCC[n+]1ccc(C=Cc2cc(OC)c(OC)c(OC)c2)cc1.[Br-] [Compound 6b] | – | – | – | – | IC50 (µg/mL) HT-1080 ([1]; 72 h treatment, MTT): 0.18 ± 0.02 µg/mL; IC50 (µg/mL) MH-22A ([2]; 72 h treatment, MTT): 1.08 ± 0.06 µg/mL |
| CCCCCCCCCCCCCCCC[n+]1ccc(C=CC=Cc2cc3c4c(c2)CCCN4CCC3)cc1.[Br-] [Compound 6e, 1-hexadecyl-4-(4-(2,3,6,7-tetrahydro-1H,5H-pyrido[3,2,1-ij]quinolin-9-yl)buta-1,3-dien-1-yl)pyridin-1-ium bromide] | 1 ± 0.03 µg/mL | 0.4 ± 0.06 µg/mL | 477 ± 11 mg/kg | 800 µmol/kg | times higher cytotoxicity towards HT-1080 than 6d ([1]; 6e versus 6d): 1.4 times; times more toxic to MH-22A than against non-cancerous Hek-293 ([2]; selectivity MH-22A versus Hek-293): 3.75 times; times more cytotoxic to MH-22A than against non-cancerous NIH3T3 ([2]; selectivity MH-22A versus NIH3T3): eight |
